{
  "source": "patent US20230218596A1",
  "about": "(MEREO BIOPHARMA 4 LIMITED, priority 2020, published 2023)",
  "origin": "cited, not measured here",
  "key": {"[1]": {"system": "NE from other species, including mice", "conditions": "cited from earlier work"}, "cystic fibrosis": {"system": "cystic fibrosis", "conditions": "cystic fibrosis patients, 4-week duration; cited from earlier work"}, "bronchiectasis": {"system": "bronchiectasis", "conditions": "bronchiectasis patients, 4-week duration; cited from earlier work"}, "ARDS": {"system": "ARDS", "conditions": "experimental models of ARDS; cited from earlier work"}, "human NE": {"target": "T1, human NE (Homo sapiens, UniProt P08246)", "T1 sequence (P08246 30-267)": "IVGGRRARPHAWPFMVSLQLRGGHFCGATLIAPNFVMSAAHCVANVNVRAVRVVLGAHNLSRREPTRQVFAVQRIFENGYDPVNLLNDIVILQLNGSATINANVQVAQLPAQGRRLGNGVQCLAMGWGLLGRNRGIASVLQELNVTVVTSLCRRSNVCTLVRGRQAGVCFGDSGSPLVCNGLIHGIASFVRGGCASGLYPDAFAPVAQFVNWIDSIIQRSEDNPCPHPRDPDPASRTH", "conditions": "cited from earlier work"}, "NE [2]": {"target": "T2, NE (Homo sapiens, UniProt P08246)", "conditions": "whole-blood assay; cited from earlier work"}, "NE [3]": {"target": "T2, NE", "conditions": "cell-associated assay; cited from earlier work"}},
  "note": "pIC50: −log10 of the molar value. Like-named read-outs stand apart in the source and are kept apart here.",
  "data": [
    {"smiles": "Cc1c(-c2ccnn2C)cc(C(=O)NCc2ccc(S(C)(=O)=O)cn2)c(=O)n1-c1cccc(C(F)(F)F)c1", "note": "[Alvelestat, N-{[5-(methanesulfonyl)pyridin-2-yl]methyl}-6-methyl-5-(1-methyl-1H-pyrazol-5-yl)-2-oxo-1-[3-(trifluoromethyl)phenyl]-1,2-dihydropyridine-3-carboxamide]", "values": [
      {"measurement": "crossover potency for NE from other species", "setting": "[1]", "result": "good crossover potency"},
      {"measurement": "biomarkers of elastase activity and inflammation", "setting": "cystic fibrosis", "result": "significant decrease"},
      {"measurement": "lung function and inflammation", "setting": "bronchiectasis", "result": "clinically significant improvement"},
      {"measurement": "lung inflammation and injury", "setting": "ARDS", "result": "protected the lung from inflammation and injury"},
      {"measurement": "reversibility of inhibition", "setting": "human NE", "result": "rapidly reversible"},
      {"measurement": "pIC50", "setting": "NE [2]", "result": 7.36},
      {"measurement": "pIC50", "setting": "NE [3]", "result": 7.32}
    ]}
  ]
}
